The values that follow come from publication PMC10096391, “Discovery of N,4-Di(1H-pyrazol-4-yl)pyrimidin-2-amine-Derived CDK2 Inhibitors as Potential Anticancer Agents: Design, Synthesis, and Evaluation” (Molecules, 2023).

The target of test [1] is CDK1/cyclin B (CDK1B) (Homo sapiens, UniProt P06493). Nature of the test: ADP-Glo kinase assay, CDK1/cyclin B. Format: biochemical. As to conditions: for Ki: apparent Ki from IC50, ADP-Glo; for inhibition at 1 µM: read-out: % Enzymatic Inhibition at 1 µM CDK1B. Here is the method:
(§1) The luminescent ADP-Glo™ assay, which measures the amount of ADP formed in a kinase reaction as described previously, was used to determine the kinase inhibition profile of the compounds. […] Ki values were calculated from their corresponding IC50 values (the concentrations of inhibitors that inhibit the kinase activity by 50%) and the Michaelis–Menten constant (Km) of ATP for each kinase using the Cheng–Prusoff equation as previously stated. In brief, 1 μL of each concentration of the test compounds was added to the respective wells, and to it were added 1 μL of the kinases and their respective substrates, diluted to the desired concentration in kinase reaction buffer ([…] tris base pH 7.5, 20 mM MgCl2, 0.4 µM dithiothreitol, and 0.1 mg/mL bovine serum albumin), and the pH was adjusted by adding 1 μL of a two-fold diluted kinase reaction buffer. To initiate the kinase activity, 1 μL of ATP solution (the concentration varies depending on the type of kinase under investigation) was added to each well, and the mixture was incubated at room temperature (20 to 22 °C) for 30–60 min depending on the kinase being tested. The reaction was then halted, 5 μL of the ADP-Glo reagent was added to each well (removing any unreacted ATP), and it was incubated at room temperature for 40 min. Then, to each well, 10 μL of the kinase detection reagent containing luciferin was added, which was incubated once more at room temperature in the dark for 30 min and the luminescence was measured by an EnVision® multi-label plate reader with an integration time of 1.5 s per well. Positive controls (the wells without the inhibitor) and negative or blank controls (the wells without the inhibitor and the enzyme, but with 1 × kinase reaction buffer) were also determined in 2.5% DMSO.
(§2) The percentage of kinase inhibition was determined using the following equation: % Residual kinase activity=Luminescence in the presence of inhibitor−Luminescence of blank control/Luminescence in the absence of inhibitor−Luminescence of blank control×100%%kinase inhbition=100%−%Residual kinase activity
(§3) Km is defined as the concentration of ATP or the substrate required to produce 50% of the maximal reaction rate in the kinase reaction. Therefore, since we used the concentration of ATP and the substrate at their Km values, Ki simply equals IC50/2 assuming these inhibitors are ATP-competitive based on the Cheng–Prusoff equation: Ki = IC50/(1 + ([ATP]/Km(ATP))) where [ATP] is the ATP concentration used for the IC50 determination and Km(ATP) for each kinase was determined experimentally.
In general terms: In ADP-Glo the light output rises with the ADP produced.

In test [2] the test system is A2780 ovarian cancer cells. Nature of the test: 72 h MTT antiproliferative assay, A2780. As to conditions: for GI50 / inhibition at 1 µM: Homo sapiens, A2780, 72 h MTT; for inhibition at 1 µM: read-out: % Growth Inhibition (GI) at 1 µM A2780. Type of test: cell-based. The text has this: Cancer cell lines derived from leukemia (MV4-11 and U937), breast (MCF7 (Rb-positive) and MDA-MB-231(Rb-negative)), and ovarian (A2780, OVCAR5, OAW28, OV90, Cov318, and Cov504) cancers, and glioblastoma (U87, T98G and U251) were acquired from the cell bank at Drug Discovery and Development, University of South Australia, and cultured according to the American Type Culture Collection (ATCC) recommendation in Roswell Park Memorial Institute (RPMI)-1640, Dulbecco’s Modified Eagle’s Medium (DMEM), or Minimum Essential Media (MEM), with 10% fetal bovine serum (Sigma-Aldrich, Castle Hill, NSW, Australia) within a humidified incubator at 37 °C in the presence of 5% CO2.
The MTT (Life Technologies, Mulgrave, VIC, Australia) and resazurin (Sigma-Aldrich) assays were used to determine the antiproliferative activities of the compounds initially at 1 µM against the cancer cell lines stated above.
Background: Tetrazolium assays rely on reduction of a dye to a coloured formazan, in cell work by metabolically active cells.

For test [3], the target named is CDK9/cyclin T1 (CDK9T1) (Homo sapiens, UniProt P50750). Nature of the test: ADP-Glo kinase assay, CDK9/cyclin T1. Type of test: biochemical. The note with it: for Ki: apparent Ki from IC50, ADP-Glo; for inhibition at 1 µM: read-out: % Enzymatic Inhibition at 1 µM CDK9T1. Here is the method:
as §1, with “Then, to each well, 10 μL of the kinase detection reagent containing luciferin was added, which was incubated once more at room temperature in the dark for 30 min and the luminescence was measured by an EnVision® multi-label plate reader with an integration time of 1.5 s per well.” left out
as §2, §3

Test [4] deals with CDK5/p25 (CDK5p25) (Homo sapiens, UniProt Q00535). Nature of the test: ADP-Glo kinase assay, CDK5/p25. Format: biochemical. As to conditions: for Ki: apparent Ki from IC50, ADP-Glo; for inhibition at 1 µM: read-out: % Enzymatic Inhibition at 1 µM CDK5p25. Here is the method:
as §1, with “Then, to each well, 10 μL of the kinase detection reagent containing luciferin was added, which was incubated once more at room temperature in the dark for 30 min and the luminescence was measured by an EnVision® multi-label plate reader with an integration time of 1.5 s per well.” left out
as §2, §3

The target of test [5] is CDK2/cyclin E (CDK2E) (Homo sapiens, UniProt P24941). Nature of the test: ADP-Glo kinase assay, CDK2/cyclin E. Format: biochemical. The note with it: for Ki: apparent Ki from IC50, ADP-Glo; for inhibition at 1 µM: read-out: % Enzymatic Inhibition at 1 µM CDK2E. Here is the method: as §1, §2, §3

Sequence of CDK9/cyclin T1 (CDK9T1) (P50750 whole entry): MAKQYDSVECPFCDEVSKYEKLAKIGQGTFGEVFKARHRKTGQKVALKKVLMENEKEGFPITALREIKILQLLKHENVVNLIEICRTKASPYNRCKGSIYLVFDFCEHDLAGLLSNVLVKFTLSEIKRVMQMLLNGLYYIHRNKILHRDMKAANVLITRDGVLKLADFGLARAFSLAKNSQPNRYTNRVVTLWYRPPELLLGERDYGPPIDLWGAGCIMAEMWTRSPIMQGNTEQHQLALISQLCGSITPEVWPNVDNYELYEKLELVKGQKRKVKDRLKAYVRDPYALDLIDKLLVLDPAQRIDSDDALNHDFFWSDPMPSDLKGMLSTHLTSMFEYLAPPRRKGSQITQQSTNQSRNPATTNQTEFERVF
Sequence of CDK9/cyclin T1 (CDK9T1) (O60563 whole entry partner): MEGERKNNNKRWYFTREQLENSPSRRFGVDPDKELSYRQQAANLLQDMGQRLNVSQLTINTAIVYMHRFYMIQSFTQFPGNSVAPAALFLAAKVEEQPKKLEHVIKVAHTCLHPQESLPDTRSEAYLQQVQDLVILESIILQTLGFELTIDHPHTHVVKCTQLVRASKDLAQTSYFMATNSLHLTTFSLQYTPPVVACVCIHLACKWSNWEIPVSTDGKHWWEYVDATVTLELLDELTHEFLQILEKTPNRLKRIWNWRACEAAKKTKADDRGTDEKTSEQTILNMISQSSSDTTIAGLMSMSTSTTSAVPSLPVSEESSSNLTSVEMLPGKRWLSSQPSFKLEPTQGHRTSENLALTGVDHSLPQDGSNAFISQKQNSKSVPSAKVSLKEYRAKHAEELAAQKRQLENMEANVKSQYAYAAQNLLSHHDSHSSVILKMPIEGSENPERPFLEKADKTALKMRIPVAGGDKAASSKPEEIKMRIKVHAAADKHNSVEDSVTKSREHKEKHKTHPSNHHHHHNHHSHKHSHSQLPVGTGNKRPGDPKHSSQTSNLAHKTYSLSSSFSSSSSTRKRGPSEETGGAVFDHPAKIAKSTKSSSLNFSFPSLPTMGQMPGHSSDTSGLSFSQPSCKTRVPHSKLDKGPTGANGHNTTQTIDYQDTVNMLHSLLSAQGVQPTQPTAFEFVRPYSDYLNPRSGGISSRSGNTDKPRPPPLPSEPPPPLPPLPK
Sequence of CDK5/p25 (CDK5p25) (Q00535 whole entry): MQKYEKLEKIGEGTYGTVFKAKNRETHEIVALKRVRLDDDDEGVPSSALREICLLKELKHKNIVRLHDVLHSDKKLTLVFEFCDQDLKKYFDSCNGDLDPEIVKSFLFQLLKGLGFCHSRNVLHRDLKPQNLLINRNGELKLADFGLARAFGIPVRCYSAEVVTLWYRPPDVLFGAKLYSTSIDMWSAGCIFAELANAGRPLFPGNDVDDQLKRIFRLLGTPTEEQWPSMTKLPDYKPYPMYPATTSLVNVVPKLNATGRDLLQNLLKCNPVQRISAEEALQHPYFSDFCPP
Sequence of CDK5/p25 (CDK5p25) (Q15078 99-307 partner limits assumed): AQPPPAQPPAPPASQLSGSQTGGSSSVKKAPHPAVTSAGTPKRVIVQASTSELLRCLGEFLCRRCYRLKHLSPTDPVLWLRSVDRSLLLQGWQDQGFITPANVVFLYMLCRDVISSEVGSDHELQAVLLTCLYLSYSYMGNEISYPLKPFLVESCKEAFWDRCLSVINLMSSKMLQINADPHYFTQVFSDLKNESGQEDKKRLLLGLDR
Sequence of CDK1/cyclin B (CDK1B) (P06493 whole entry): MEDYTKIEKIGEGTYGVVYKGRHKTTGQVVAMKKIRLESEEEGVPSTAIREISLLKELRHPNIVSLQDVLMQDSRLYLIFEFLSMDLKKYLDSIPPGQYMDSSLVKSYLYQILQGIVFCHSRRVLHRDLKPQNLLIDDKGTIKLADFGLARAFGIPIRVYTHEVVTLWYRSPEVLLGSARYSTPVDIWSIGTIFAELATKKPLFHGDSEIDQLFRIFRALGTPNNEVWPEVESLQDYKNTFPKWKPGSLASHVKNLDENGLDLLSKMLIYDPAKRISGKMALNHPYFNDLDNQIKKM
Sequence of CDK1/cyclin B (CDK1B) (P14635 whole entry partner): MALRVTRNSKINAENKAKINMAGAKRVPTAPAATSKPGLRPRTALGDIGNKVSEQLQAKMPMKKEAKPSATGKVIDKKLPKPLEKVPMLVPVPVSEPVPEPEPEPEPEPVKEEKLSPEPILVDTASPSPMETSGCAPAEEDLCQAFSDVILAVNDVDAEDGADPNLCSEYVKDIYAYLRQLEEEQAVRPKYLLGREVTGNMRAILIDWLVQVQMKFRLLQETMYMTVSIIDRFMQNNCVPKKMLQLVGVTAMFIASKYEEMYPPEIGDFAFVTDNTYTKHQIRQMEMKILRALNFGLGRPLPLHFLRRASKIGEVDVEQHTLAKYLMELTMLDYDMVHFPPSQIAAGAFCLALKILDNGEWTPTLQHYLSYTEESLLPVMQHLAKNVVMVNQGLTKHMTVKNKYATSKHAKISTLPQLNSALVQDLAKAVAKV

In general, GI50 refers to the concentration that inhibits growth by half. Read a high GI50 as less potent growth inhibition. For the molecule `Cn1cc(-c2nc(Nc3cn[nH]c3)ncc2F)cn1` [Compound 14, 5-Fluoro-4-(1-methyl-1H-pyrazol-4-yl)-N-(1H-pyrazol-4-yl)pyrimidin-2-amine], the Ki turned out to be 18 nM in test [1], 16 nM in test [3], 3 nM in test [4] and 7 nM in test [5]. In test [2], halving of growth (GI50) required 498 nM. For the same molecule, in test [2] (versus 1), the “fold lower antiproliferative activity against A2780 compared to 1” value is “about 28 fold”.

In general, inhibition refers to the percentage by which the read-out fell short of the control. Take `Cn1cc(Nc2ncc(F)c(-c3cnn(C)c3)n2)cn1` [Compound 16, 5-Fluoro-N,4-bis(1-methyl-1H-pyrazol-4-yl)pyrimidin-2-amine]: the Ki came to 92 nM in test [1], 98 nM in test [3], 18 nM in test [4] and 23 nM in test [5]. Besides, the inhibition at 1 µM in test [2] came out at 9%; in test [5] it was 97%.

With `Cn1cc(Nc2ncc(Cl)c(-c3cnn(C)c3)n2)cn1` [Compound 17, 5-Chloro-N,4-bis(1-methyl-1H-pyrazol-4-yl)pyrimidin-2-amine], the Ki in test [1] amounted to 34 nM; in test [5], 11 nM. Also, the inhibition at 1 µM in test [2] was determined as 87%. Moreover, halving of growth in test [2] (GI50) required 1020 nM.

For `Cn1cc(-c2nc(Nc3cnn(CC(N)=O)c3)ncc2F)cn1` [Compound 18, 2-(4-((5-Fluoro-4-(1-methyl-1H-pyrazol-4-yl)pyrimidin-2-yl)amino)-1H-pyrazol-1-yl)acetamide], the Ki was determined as 112 nM in test [1], 193 nM in test [4] and 85 nM in test [5]. For the same molecule, the figures for the inhibition at 1 µM in test [2] and in test [3] were 0% and 68%, respectively.

Take `Cn1cc(-c2nc(Nc3cnn(CC(N)=O)c3)ncc2Cl)cn1` [Compound 19, 2-(4-((5-Chloro-4-(1-methyl-1H-pyrazol-4-yl)pyrimidin-2-yl)amino)-1H-pyrazol-1-yl)acetamide]: the Ki in test [1] is 18 nM; in test [3], 101 nM; in test [4], 52 nM; in test [5], 25 nM. In addition, in test [2], the inhibition at 1 µM is 44%.

Take `Cc1nn(C)cc1-c1nc(Nc2cnn(C)c2)ncc1F` [Compound 20, 4-(1,3-Dimethyl-1H-pyrazol-4-yl)-5-fluoro-N-(1-methyl-1H-pyrazol-4-yl)pyrimidin-2-amine]: the Ki in test [1] stood at 164 nM; in test [3] it was 343 nM; in test [4], 18 nM; in test [5] it was 26 nM. The inhibition at 1 µM in test [2] stood at 7%.

For `Cc1nn(C)cc1-c1nc(Nc2cnn(C)c2)ncc1Cl` [Compound 21, 5-Chloro-4-(1,3-dimethyl-1H-pyrazol-4-yl)-N-(1-methyl-1H-pyrazol-4-yl)pyrimidin-2-amine], the Ki amounted to 225 nM in test [1], 62 nM in test [3], 35 nM in test [4] and 23 nM in test [5]. Further, the inhibition at 1 µM in test [2] was 8%.

Regarding `Cn1cc(-c2nc(Nc3ccn[nH]3)ncc2Cl)cn1` [Compound 23, 5-Chloro-4-(1-methyl-1H-pyrazol-4-yl)-N-(1H-pyrazol-5-yl)pyrimidin-2-amine], the inhibition at 1 µM in test [1] was 9%; in test [3], 40%. The molecule also showed a GI50 in test [2] of 7350 nM. Moreover, in test [2] (versus 15, GI50 ratio), the “fold less potent antiproliferative activity against A2780 than 15” value amounted to 47 fold. Also, the Ki in test [4] is 40 nM; in test [5], 90 nM. The “fold reduced CDK2 inhibition compared to 15” value in test [5] (versus 15, Ki ratio) was found to be 18 fold.

Consider `Cn1cc(-c2nc(Nc3nccs3)ncc2Cl)cn1` [Compound 25, N-(5-Chloro-4-(1-methyl-1H-pyrazol-4-yl)pyrimidin-2-yl)thiazol-2-amine], for which the inhibition at 1 µM in test [1] turned out to be 31%; in test [2] it was 9%; in test [3], 31%; in test [5], 46%. In addition, the Ki in test [4] is 177 nM.

Turning to `Cn1cc(Nc2ncc(F)c(-c3cnn(CCN4CCOCC4)c3)n2)cn1` [Compound 31, 5-Fluoro-N-(1-methyl-1H-pyrazol-4-yl)-4-(1-(2-morpholinoethyl)-1H-pyrazol-4-yl)pyrimidin-2-amine], the inhibition at 1 µM in test [1] is 26%; in test [2], 0%; in test [3], 24%; in test [4], 43%; in test [5], 48%.

Consider `Cn1cc(Nc2ncc(Cl)c(-c3cnn(CCN4CCOCC4)c3)n2)cn1` [Compound 32, 5-Chloro-N-(1-methyl-1H-pyrazol-4-yl)-4-(1-(2-morpholinoethyl)-1H-pyrazol-4-yl)pyrimidin-2-amine], for which the inhibition at 1 µM in test [1] was determined as 36%; in test [2] it was 3%; in test [3] it was 21%. The Ki in test [4] worked out at 126 nM; in test [5], 252 nM.

`Cn1cc(Nc2ncc(F)c(-c3ccnn3C)n2)cn1` [Compound 35, 5-Fluoro-N-(1-methyl-1H-pyrazol-4-yl)-4-(1-methyl-1H-pyrazol-5-yl)pyrimidin-2-amine]: the inhibition at 1 µM amounted to 49% in test [1]; 19% in test [2]; 45% in test [3]; 58% in test [4]; 64% in test [5].
